# How the values were obtained:
# [1] = Cmax in rat plasma at 50 mg/kg dosed via oral gavage; type: ADME, organism-based; parameters: dose 50 mg/kg, route oral
# [2] = Tmax in rat plasma at 50 mg/kg dosed via oral gavage; type: ADME, organism-based
# [3] = Drug recovery in rat bile at 50 mg/kg dosed via oral gavage; type: ADME, organism-based; conditions: read-out: Drug recovery
# [4] = Oral bioavailability in rat plasma at 50 mg/kg dosed via gavage; type: ADME, organism-based
# [5] = Thermal stability of compound after 30 mins by thermogravimetric analysis; type: physicochemical; conditions: 0.5 h
# [6] = Solubility of compound in stimulated GI fluid at pH 1.1 measured at 15 to 60 mins by LC/MS analysis; type: ADME; conditions: buffer
# [7] = AUC(infinity) in rat at 50 mg/kg dosed via oral gavage; type: ADME, organism-based; parameters: dose 50 mg/kg, route oral, time infinity; conditions: in vivo
# Liver = test: Drug metabolism in rat liver S9 fractions at 1 uM measured at 0 to 60 mins by LC/MS analysis; type: ADME, subcellular, Liver S9 fraction; conditions: s9, 1 µM
# [8] = Solubility of compound in stimulated intestinal fluid at pH 6.8 measured at 0.5 to 3 hrs by LC/MS analysis; type: ADME; conditions: simulated gi fluid
# [9] = Solubility of compound in saline solution after 1 hr by LC/MS analysis; type: physicochemical; conditions: buffer
# [10] = Solubility of compound in methanol after 2 hrs; type: physicochemical
# [11] = Solubility of compound in phosphate buffer at pH 8 after 1 hr by LC/MS analysis; type: physicochemical; conditions: pH 8, 1 h
Cmax [1],Tmax [2],dose excreted [3],bioavailability [4],T [5],solubility [6],AUC(0-inf) [7],Drug metabolism (Liver),solubility [8],solubility [9],solubility [10],solubility [11],Structure (SMILES)
2360 nM,15 min,1.8%,5.6%,214 °C,soluble,9.34 µM·h,metabolite_detected,soluble,39320 µg/mL,–,–,C[N+](C)(C)CCO.O=C([O-])c1cc(/N=N/c2ccc(S(=O)(=O)Nc3ccccn3)cc2)ccc1O
–,–,–,–,253 °C,soluble,–,metabolite_detected,soluble,10 µg/mL,soluble,3090 µg/mL,O=C(O)c1cc(/N=N/c2ccc(S(=O)(=O)Nc3ccccn3)cc2)ccc1O [SULFASALAZINE]
